Results from article PMC10419252, “Synthesis, Properties, and Biomedical Application of Dicationic Gemini Surfactants with Dodecane Spacer and Carbamate Fragments” (International Journal of Molecular Sciences, 2023).
Where “and” joins values, the source holds several entries; their conditions need not be identical. Equal entries are not always repeated. Where two headings read alike, the source gives them in different places.

Columns and labels:
[1] = alkyltrimethylammonium bromides; cited from earlier work
[2] = tested on: methicillin-resistant S. aureus MRSA-1 (resistant to fluoroquinolones and beta-lactams); conditions: cited from earlier work
[3] = target: T1, human acetylcholinesterase (hAChE) (Homo sapiens, UniProt P22303); experiment: biochemical
T1 construct: purchased Sigma-Aldrich
T1 sequence (P22303 32-614): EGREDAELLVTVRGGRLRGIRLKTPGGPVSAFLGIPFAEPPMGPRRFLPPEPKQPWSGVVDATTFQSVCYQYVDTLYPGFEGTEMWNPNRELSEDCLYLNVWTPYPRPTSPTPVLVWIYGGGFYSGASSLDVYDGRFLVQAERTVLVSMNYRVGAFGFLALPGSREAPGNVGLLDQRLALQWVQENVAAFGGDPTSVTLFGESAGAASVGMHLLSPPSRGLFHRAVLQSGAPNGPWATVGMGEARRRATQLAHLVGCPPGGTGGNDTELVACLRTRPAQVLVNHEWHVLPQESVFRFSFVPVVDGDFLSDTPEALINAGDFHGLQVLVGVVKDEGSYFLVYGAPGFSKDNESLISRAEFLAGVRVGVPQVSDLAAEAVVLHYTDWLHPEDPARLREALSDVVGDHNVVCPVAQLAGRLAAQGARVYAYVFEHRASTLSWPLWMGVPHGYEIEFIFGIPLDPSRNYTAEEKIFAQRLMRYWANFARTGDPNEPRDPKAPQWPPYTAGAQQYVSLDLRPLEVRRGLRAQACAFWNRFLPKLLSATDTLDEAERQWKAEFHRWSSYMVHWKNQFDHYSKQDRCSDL
Description: (§1) Stock solutions (0.01 M) of the compounds were dissolved in H2O. The inhibitory activity of compounds against hAChE and hBChE was measured using Ellman’s method. Enzyme-catalyzed hydrolysis was carried out in 0.1 M PBS (pH = 8.0) containing 0.1 nM hAChE or hBChE, 0.1 mM 5,5′-dithiobis-(2-nitrobenzoic acid) and 1mM acetylthiocholine or butyrylthiocholine as substrates. The tested compounds were incubated with the enzyme for 5 min prior to the addition of the substrate. Analyses were performed at 298 K using a Shimadzu UV-1800 spectrophotometer (Shimadzu Co., Kyoto, Japan) at 412 nm. The substrate hydrolysis rate was measured within 2 min. A sample without inhibitor was used as a control (100% cholinesterase activity). A sample without substrate was used as a blank. The experiments were conducted in triplicate. The percentage of enzyme inhibition was determined using OriginPro 8.5 software (OriginLab Corporation, Northampton, MA, USA) by plotting a percentage of the inhibition versus compound concentration. IC50 values (inhibitor concentration required to inhibit enzyme activity by 50%) were determined by the Hill equation: E/Emax=[I]^n/IC50n+[I]^n, where E is enzyme activity in the presence of the compound, and [I] is the compound concentration.

[4] = tested on: Pseudomonas aeruginosa ATCC 9027; experiment: Antimicrobial activity (Pa); type: cell-based
Description: (§2) The antimicrobial activity of the compounds was tested on Gram-positive Staphylococcus aureus ATCC 6538P FDA 209P (Sa), Bacillus cereus ATCC 10702 NCTC 8035 (Bc), Enterococcus faecalis ATCC 29212 (Ef), and Gram-negative bacteria Escherichia coli ATCC 25922 (Ec), Pseudomonas aeruginosa ATCC 9027 (Pa), including methicillin-resistant strains of S. aureus MRSA-1 (resistant to fluoroquinolones and beta-lactams) and MRSA-2 (resistant to beta-lactams). Antifungal activity was studied against Candida albicans ATCC 10231 (Ca), Trichophyton mentagrophytes var. gypseum 1773 (Tm), and Aspergillus niger BKMF-1119 (An). A more detailed description of the experiment is published in [21].

[5] = tested on: Aspergillus niger BKMF-1119; experiment: Antifungal activity (An); type: cell-based
Description: as §2

[6] = Orange OT solubilization, spectrophotometry (Schott method for Nagg); type: physicochemical
Description: (§3) The cmc and the solubilizing capacity (S) of surfactants were determined using the spectral azo dye OOT and the non-steroidal anti-inflammatory drug IND. To obtain a saturated solution, an excess of OOT and IND was added to 2 mL of a surfactant solution, stirred, and kept for 48 and 24 h, respectively. After that, the solutions were filtered using Millex® Syringe Filters (Millipore, Burlington, MA, USA) with a pore size of 450 nm, and the optical density was measured. The absorption spectra were recorded on a Specord 250 Plus spectrophotometer (Analytik Jena AG, Jena, Germany). Quartz cells with a thickness of 1 and 0.5 cm (Hellma Analytics, Müllheim, Germany) were used for measurements.
(§4) The solubilizing capacity (S) was determined using the following formula:S = b/ε, where b is D/l = f (Csurf) dependency slope (above cmc), ε is the extinction coefficient (17,400 L/mol∙cm for OOT, and the extinction coefficients of IND are determined in GS solutions and presented in Figure S10).
The OOT solubilization method (Schott method) was used to calculate the micelle Nagg. The Nagg values were calculated for each point on the curve of dependence of the OOT-reduced optical density on the surfactant concentration above the cmc according to the presented formula:[…], where ε is the extinction coefficient of OOT, Csurf is the surfactant concentration above cmc, and D is the optical density.

[7] = tested on: Escherichia coli ATCC 25922; experiment: Antimicrobial activity (Ec); type: cell-based
Description: as §2

[8] = tested on: Candida albicans ATCC 10231; experiment: Antifungal activity (Ca); type: cell-based
Description: as §2

[9] = Conductometry; type: physicochemical; conditions: 298 K
Description: The electrical conductivity of the micellar solutions was determined on an InoLab Cond 7110 conductometer (WTW, Weilheim, Germany). For the experiment, surfactant solutions with a volume of 10 mL were prepared. The electrical conductivity of all solutions was recorded at 298 K, and the electrode was washed with purified water after each measurement. The cmc was determined from the breakpoint of the dependence of electrical conductivity on the concentration of surfactants.

[10] = tested on: methicillin-resistant S. aureus MRSA-1 (resistant to fluoroquinolones and beta-lactams); experiment: Antimicrobial activity (MRSA-1); type: cell-based
Description: as §2

[11] = tested on: Trichophyton mentagrophytes var. gypseum 1773; experiment: Antifungal activity (Tm); type: cell-based
Description: as §2

[12] = Pyrene fluorimetry; type: physicochemical; conditions: 298 K
Description: To determine cmc by fluorimetry, a hydrophobic probe pyrene was added to a series of surfactant solutions at a concentration of 1 μM. The solutions were kept for 30–40 min for complete solubilization of the probe. The fluorescent emission spectra of pyrene were recorded on an F-7100 fluorimeter (Hitachi, Tokyo, Japan) using 10 × 4 mm quartz cuvette (Hellma Analytics, Müllheim, Germany) with the following settings: λex = 335 nm, λem = 350–600 nm, and scanning speed = 1200 nm/min. The cmc was calculated from the dependence of the pyrene polarity index (the ratio of the intensities of the first (373 nm) and third (383 nm) peaks) on the surfactant concentration.

[13] = Indomethacin solubilization, spectrophotometry; type: physicochemical; conditions: 298 K
Description: as §3, §4

[14] = tested on: methicillin-resistant S. aureus MRSA-2 (resistant to beta-lactams); experiment: Antimicrobial activity (MRSA-2); type: cell-based
Description: as §2

[15] = Tensiometry (Du Nouy ring), surface tension isotherms; type: physicochemical
Description: The surface tension isotherms of the micellar solutions were determined using the Du Nouy platinum ring detachment method on a K6 tensiometer (KRŰSS GmbH, Hamburg, Germany). For the experiment, surfactant solutions with a volume of 10 mL were prepared. The measurements were carried out strictly at 298 K in glass beakers, the diameter of which exceeded the diameter of the platinum ring. Surface tension measurements were carried out until stable values were obtained. After each measurement, the ring was degreased in ethanol and thoroughly dried. The cmc of the micellar solutions was determined from the breakpoint on the isotherm of surface tension versus surfactant concentration. The thermodynamic parameters of adsorption and micellization were calculated for all systems based on the obtained tensiometric curves.

[16] = tested on: Staphylococcus aureus ATCC 6538P FDA 209P; experiment: Antimicrobial activity (Sa); type: cell-based
Description: as §2

[17] = tested on: Bacillus cereus ATCC 10702 NCTC 8035; experiment: Antimicrobial activity (Bc); type: cell-based
Description: as §2

[18] = tested on: Enterococcus faecalis ATCC 29212; experiment: Antimicrobial activity (Ef); type: cell-based
Description: as §2

[19] = target: T2, human butyrylcholinesterase (hBChE) (Homo sapiens, UniProt P06276); experiment: In vitro cholinesterase inhibition, Ellman's method (hBChE); type: biochemical
T2 construct: purchased Sigma-Aldrich
T2 sequence (P06276 29-602): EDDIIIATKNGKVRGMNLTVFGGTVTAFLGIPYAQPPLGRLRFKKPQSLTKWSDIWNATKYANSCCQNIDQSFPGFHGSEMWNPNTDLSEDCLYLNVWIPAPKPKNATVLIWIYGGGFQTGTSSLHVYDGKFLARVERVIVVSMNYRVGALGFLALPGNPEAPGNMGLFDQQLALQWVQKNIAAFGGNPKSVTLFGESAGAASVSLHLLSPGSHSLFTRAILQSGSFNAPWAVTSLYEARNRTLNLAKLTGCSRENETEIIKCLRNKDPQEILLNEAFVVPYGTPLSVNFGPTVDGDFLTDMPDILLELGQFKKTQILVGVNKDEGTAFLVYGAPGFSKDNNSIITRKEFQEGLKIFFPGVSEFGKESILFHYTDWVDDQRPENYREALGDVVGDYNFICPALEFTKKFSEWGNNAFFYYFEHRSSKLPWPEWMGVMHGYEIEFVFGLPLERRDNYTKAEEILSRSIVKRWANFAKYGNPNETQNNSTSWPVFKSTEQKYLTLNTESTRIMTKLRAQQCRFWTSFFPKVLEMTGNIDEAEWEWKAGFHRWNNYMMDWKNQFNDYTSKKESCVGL
Description: as §1

Q: Which Nagg [1] does the source give for CCCCCCCCCCCCCCCC[N+](C)(C)C.[Br-] [C16TAB] here?
A: 89

Q: With O=C(O)c1cn(C2CC2)c2cc(N3CCNCC3)c(F)cc2c1=O [Ciprofloxacin] as the compound, how does the “effectiveness toward MRSA-1 compared with 10-12-10(Et)” value [2] read?
A: two orders of magnitude less effective

Q: Which IC50 [3] does the source give for CCCCCCCCCC[N+](C)(CCCCCCCCCCCC[N+](C)(CCCCCCCCCC)CCOC(=O)NCC)CCOC(=O)NCC (stereo not drawn) [10-12-10(Et)] here?
A: 43.1 ± 0.9 nM

Q: And the “SIhBChE/hAChE (selectivity index)” value ([3]; IC50 hBChE / IC50 hAChE)?
A: 0.44

Q: What about the “MBC, Pa” value [4] of the same compound?
A: 3.9 ± 0.3 µg/mL

Q: What about the “MIC, Pa” value [4] of the same compound?
A: 1.9 ± 0.1 µg/mL

Q: And the “MFC, An” value [5]?
A: >250 µg/mL

Q: And the “MIC, An” value [5]?
A: 250 ± 19 µg/mL

Q: And the “S (solubilizing capacity), OOT” value [6]?
A: 0.021 molOOT/molGS

Q: And the “S (solubilizing capacity), OOT” value ([6]; 298 K)?
A: 0.021 molprobe/molGS

Q: And the “cmc, Spectrophotometry” value ([6]; OOT, 298 K)?
A: 1.5 ± 0.1 mM

Q: And the “Nagg (aggregation number)” value ([6]; Schott approach, OOT solubilization, 298 K)?
A: 50

Q: And the “MBC, Ec” value [7]?
A: 0.5 ± 0.03 µg/mL

Q: What about the “MIC, Ec” value [7] of the same compound?
A: 0.5 ± 0.03 µg/mL

Q: And the “MFC, Ca” value [8]?
A: 15.6 ± 1.2 µg/mL

Q: And the “MIC, Ca” value [8]?
A: 0.9 ± 0.07 µg/mL

Q: What about the cmccond [9] of the same compound?
A: 1.5 mM and 1.5 ± 0.04 mM

Q: And the “βcond (degree of counterion binding)” value [9]?
A: 0.41

Q: And the “MBC, MRSA-1” value [10]?
A: 1.9 ± 0.1 µg/mL

Q: And the “MIC, MRSA-1” value [10]?
A: 0.5 µg/mL and 0.5 ± 0.03 µg/mL

Q: And the “MFC, Tm” value [11]?
A: 15.6 ± 1.3 µg/mL

Q: What about the “MIC, Tm” value [11] of the same compound?
A: 0.9 ± 0.07 µg/mL

Q: And the “cmc, Fluorimetry” value [12]?
A: 0.9 mM and 0.9 ± 0.03 mM

Q: And the “S (solubilizing capacity), IND” value [13]?
A: 0.13 molprobe/molGS

Q: And the “MBC, MRSA-2” value [14]?
A: 3.9 ± 0.3 µg/mL

Q: And the “MIC, MRSA-2” value [14]?
A: 0.5 µg/mL and 0.5 ± 0.03 µg/mL

Q: And the “Amin (surface area per surfactant molecule)” value ([15]; 298 K)?
A: 2.34 nm^2

Q: And the “Гmax∙10^6 (maximum surface excess)” value ([15]; 298 K)?
A: 0.71 mol∙m^−2

Q: And the “∆Gmic (free energy of micellization)” value ([15]; 298 K)?
A: -6.09 kcal/mol

Q: What about the “calculated adsorption layer thickness” value ([15]; air/water interface) of the same compound?
A: 0.7 nm

Q: What about the cmctens ([15]; tensiometry, 298 K) of the same compound?
A: 1 mM and 1 ± 0.03 mM

Q: And the “MBC, Sa” value [16]?
A: 0.5 ± 0.04 µg/mL

Q: What about the “MIC, Sa” value [16] of the same compound?
A: 0.5 ± 0.03 µg/mL

Q: What about the “MBC, Bc” value [17] of the same compound?
A: 0.5 ± 0.03 µg/mL

Q: What about the “MIC, Bc” value [17] of the same compound?
A: 0.5 ± 0.04 µg/mL

Q: And the “MBC, Ef” value [18]?
A: 0.5 ± 0.04 µg/mL

Q: And the “MIC, Ef” value [18]?
A: 0.5 ± 0.03 µg/mL

Q: And the IC50 [19]?
A: 19 ± 5 nM

Q: Which Nagg [1] does the source give for CCCCCCCCCCCC[N+](C)(C)C.[Br-] [C12TAB] here?
A: 55
